According to US8017809B2, “Bisboron compound” (Japan Science and Technology Agency, priority 2005, dated 2011):
Read-outs that look alike come from different tables or passages of the source.

System: capacitative calcium entry (CCE) in IP3 receptor-deficient strain of cell line DT40
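Note: intracellular Ca2+ read as 340/380 nm excitation ratio at 510 nm emission, stores emptied by thapsigargin without external Ca2+, then 2 mM CaCl2 added, inhibition of the ensuing Ca2+ rise.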

Description: (Assay of Capacitative Calcium Entry Inhibition)
Its 510 nm fluorescence obtained at 340 nm and 380 nm is measured and the fluorescence ratio F340/380 is measured to determine the intracellular calcium ion concentration. Next, thapsigargin (an endoplasmic reticulum calcium ion pump inhibitor) is allowed to act without calcium ion in an extracellular fluid to deplete an intracellular calcium store. Calcium chloride at a final concentration of 2 mM is added to the extracellular fluid. The IC50 value is calculated by estimating the effect of each compound on the degree of increase in the intracellular calcium concentration at the time of the addition.

Row | Compound | inhibition (3 µM) [%] | inhibition (1 µM) [%] | also measured
1 | NCCOB(c1ccccc1)c1ccccc1 [(2-aminoethoxy)diphenylborane, reference compound] |  |  | IC50: 5 µM
2 | OB(c1ccccc1)c1ccc(Oc2ccc(B(O)c3ccccc3)cc2)cc1 [Example 1, Bis(4,4′-(phenylhydroxyboryl)phenyl) ether] | 50 |  | 
3 | OB(c1ccccc1)c1cccc(COCc2cccc(B(O)c3ccccc3)c2)c1 [Example 4] |  | 100 | inhibition (0.1 µM): 70%; inhibition (0.3 µM): 95%
4 | NCCOB(c1ccccc1)c1cccc(COCc2cccc(B(OCCN)c3ccccc3)c2)c1 [Example 5, Bis(3,3′-(phenylaminoethoxyboryl)benzyl) ether] |  |  | inhibition (0.03 µM): 30%; inhibition (0.1 µM): 95%; inhibition (0.3 µM): 100%
5 | OB(c1ccccc1)c1ccc(COCc2ccccc2B(O)c2ccccc2)cc1 [Example 12, (2-(Phenylhydroxyboryl)benzyl) (4-(phenylhydroxyboryl)benzyl) ether] | 100 | 80 | inhibition (0.3 µM): 10%
6 | NCCOB(c1ccccc1)c1ccc(COCc2cccc(B(OCCN)c3ccccc3)c2)cc1 [Example 13, (3-(Phenylaminoethoxyboryl)benzyl) (4-(phenylaminoethoxyboryl)benzyl) ether] |  |  | inhibition (0.1 µM): 10%; inhibition (0.2 µM): 80%; inhibition (0.3 µM): 100%
7 | NCCOB(c1ccccc1)c1cccc(COCc2ccccc2B(OCCN)c2ccccc2)c1 [Example 15, (2-(Phenylaminoethoxyboryl)benzyl) (3-(phenylaminoethoxyboryl)benzyl) ether] | 100 | 100 | inhibition (0.3 µM): 100%
8 | Cc1ccc(B(OCCN)c2ccc(-c3ccc(B(OCCN)c4ccc(C)cc4)cc3)cc2)cc1 [Example 45, 4,4′-(4-Methylphenylaminoethoxyboryl)diphenyl] | 100 | 20 | 
9 | OB(c1ccccc1)c1ccc(COc2ccc(B(O)c3ccccc3)cc2)cc1 [Example 51, (4-Phenylhydroxyborylphenyl) (4′-phenylhydroxyborylbenzyl) ether] | 100 | 20 | 
10 | NCCOB(c1ccccc1)c1ccc(COc2ccc(B(OCCN)c3ccccc3)cc2)cc1 [Example 52, (4-Phenylaminoethoxyborylphenyl) (4′-phenylaminoethoxyborylbenzyl) ether] | 100 |  | 
11 | NCCOB(c1ccc(COCCOc2ccc(B(OCCN)c3cccs3)cc2)cc1)c1cccs1 [Example 53, (4-(2-Thiopheneaminoethoxyboryl)phenoxyethyl) (4′-(2-thiopheneaminoethoxyboryl)benzyl) ether] |  | 10 | 
12 | OB(c1ccc(COc2ccc(B(O)c3ccc(C(F)(F)F)cc3)cc2)cc1)c1ccc(C(F)(F)F)cc1 [Example 54, (4-Trifluoromethylphenylhydroxyborylphenyl) (4′-trifluoromethylphenylhydroxyborylbenzyl) ether] | 100 | 60 | 
13 | NCCOB(c1ccc(COc2ccc(B(OCCN)c3ccc(C(F)(F)F)cc3)cc2)cc1)c1ccc(C(F)(F)F)cc1 [Example 55] | 100 | 20 | inhibition (0.3 µM): 0%
14 | CC(C)(C)c1cc(B(OCCN)c2ccccc2)c2c(c1)C(C)(C)c1cc(C(C)(C)C)cc(B(OCCN)c3ccccc3)c1O2 [Example 60, 4,5-Di(phenylaminoethoxyboryl)-2,7-di-t-butyl-9,9-dimethylxanthrene] | 100 | 20 | 
15 | CNCCOB(c1ccccc1)c1ccc(Oc2ccc(B(OCCNC)c3ccccc3)cc2)cc1 [Example 68, Bis(4,4′-(phenyl-N-methylaminoethoxyboryl)phenyl) ether] |  | 80 | inhibition (0.3 µM): 20%
16 | CNCCOB(c1ccc(COc2ccc(B(OCCNC)c3ccc(C(F)(F)F)cc3)cc2)cc1)c1ccc(C(F)(F)F)cc1 [Example 84, (4′-Trifluoromethylphenyl-N-methylaminoethoxyboryl)-4-phenyl (4′-trifluoromethylphenyl-N-methylaminoethoxyboryl)-4-benzyl ether] | 100 | 50 | 
17 | CN(C)CCOB(c1ccccc1)c1cccc(COCc2cccc(B(OCCN(C)C)c3ccccc3)c2)c1 [Example 85, Bis(3,3′-(phenyl-N,N-dimethylaminoethoxyboryl)benzyl) ether] | 90 | 10 | 
18 | c1ccc(B(OCc2ccccn2)c2ccc(COCc3ccc(B(OCc4ccccn4)c4ccccc4)cc3)cc2)cc1 [Example 88, Bis(4,4′-(phenyl-2-pyridylmethoxyboryl)benzyl) ether] | 100 | 95 | 
19 | Cc1ccc(B(O)c2ccc(COCc3ccc(B(O)c4ccc(C)c(Cl)c4)cc3)cc2)cc1Cl [Example 90, Bis(4,4′-(3-chloro-4-methylphenyl-hydroxyboryl)benzyl) ether] | 100 | 20 | 
20 | COc1ccc(B(OCCN)c2ccc(COCc3ccc(B(OCCN)c4ccc(OC)cc4)cc3)cc2)cc1 [Example 94, Bis(4,4′-(p-methoxyphenyl-aminoethoxyboryl)benzyl) ether] | 100 | 0 | 

Row | Compound | inhibition (3 µM) [%] | inhibition (1 µM) [%] | also measured
21 | CNCCOB(c1ccc(COCc2ccc(B(OCCNC)c3ccc(OC)cc3)cc2)cc1)c1ccc(OC)cc1 [Example 95, Bis(4,4′-(p-methoxyphenyl-N-methylaminoethoxyboryl)benzyl) ether] | 80 | 80 | 
22 | Cc1ccc(B(OCCN)c2ccc(COCc3ccc(B(OCCN)c4ccc(C)c(Cl)c4)cc3)cc2)cc1Cl [Example 102, Bis(4,4′-(3-chloro-4-methylphenyl-aminoethoxyboryl)benzyl) ether] | 100 | 30 | 
23 | CNCCOB(c1ccc(COCc2ccc(B(OCCNC)c3ccc(C)c(Cl)c3)cc2)cc1)c1ccc(C)c(Cl)c1 [Example 103, Bis(4,4′-(3-chloro-4-methylphenyl-N-methylaminoethoxyboryl)benzyl) ether] | 80 | 30 | 
24 | Cc1ccc(B(OCCN(C)C)c2ccc(COCc3ccc(B(OCCN(C)C)c4ccc(C)c(Cl)c4)cc3)cc2)cc1Cl [Example 104, Bis(4,4′-(3-chloro-4-methylphenyl-N,N-dimethylaminoethoxyboryl)benzyl) ether] | 100 | 20 | 
25 | Cc1ccc(B(OCC2CCCCN2)c2ccc(COCc3ccc(B(OCC4CCCCN4)c4ccc(C)c(Cl)c4)cc3)cc2)cc1Cl (centres unmarked) [Example 105, Bis(4,4′-(3-chloro-4-methylphenyl-2-piperidylmethyloxyboryl)benzyl) ether] | 100 | 30 | 
26 | CN(C)CCOB(c1ccc(COCc2ccc(B(OCCN(C)C)c3ccc(C(F)(F)F)cc3)cc2)cc1)c1ccc(C(F)(F)F)cc1 [Example 106, Bis(4,4′-(p-trifluoromethylphenyl-N,N-dimethylaminoethoxyboryl)benzyl) ether] | 100 | 30 | 
27 | NCCOB(c1ccc(COCc2ccc(B(OCCN)c3ccc(C(F)(F)F)cc3)cc2)cc1)c1ccc(C(F)(F)F)cc1 [Example 108, Bis(4,4′-(p-trifluoromethylphenyl-aminoethoxyboryl)benzyl) ether] | 100 | 20 | 
28 | CNCCOB(c1ccccc1)c1ccc(COc2ccc(B(OCCNC)c3ccccc3)cc2)cc1 [Example 109, (4-Phenyl-N-methylaminoethoxyborylphenyl) 4′-(N-methylaminoethoxyborylbenzyl) ether] | 100 | 80 | 
29 | CN(C)CCOB(c1ccccc1)c1ccc(COc2ccc(B(OCCN(C)C)c3ccccc3)cc2)cc1 [Example 110, (4-Phenyl-N,N-dimethylaminoethoxyborylphenyl) 4′-(N,N-dimethylaminoethoxyborylbenzyl) ether] | 100 | 20 | 
30 | c1ccc(B(OCc2ccccn2)c2ccc(COc3ccc(B(OCc4ccccn4)c4ccccc4)cc3)cc2)cc1 [Example 111, (4-Phenyl-2-pyridylmethoxyborylphenyl) (4′-phenyl-2-pyridylmethoxyborylbenzyl) ether] | 100 | 20 | 
31 | c1ccc(B(OCC2CCCN2)c2ccc(COCc3ccc(B(OCC4CCCN4)c4ccccc4)cc3)cc2)cc1 (centres unmarked) [Example 134, Bis(4,4′-(phenyl-2-pyrrolidinemethoxyboryl)benzyl) ether] | 100 | 20 | 
32 | CCCCNCCOB(c1ccccc1)c1ccc(COCc2ccc(B(OCCNCCCC)c3ccccc3)cc2)cc1 [Example 136, Bis(4,4′-(phenyl-butylaminoethoxyboryl)benzyl) ether] | 100 | 30 | 
33 | NCC(OB(c1ccccc1)c1cccc(COCc2cccc(B(OC(CN)c3ccccc3)c3ccccc3)c2)c1)c1ccccc1 (centres unmarked) [Example 150, Bis(3,3′-(phenyl-2-amino-1-phenylethoxyboryl)benzyl) ether] | 100 | 50 | 
34 | CNCCOB(c1ccccc1)c1cccc(COCc2cccc(B(OCCNC)c3ccccc3)c2)c1 [Example 151, Bis(3,3′-(phenyl-N-methylethoxyboryl)benzyl) ether] | 100 | 60 | 
35 | CC(CCNCCN)OB(c1ccccc1)c1cccc(COCc2cccc(B(OC(C)CCNCCN)c3ccccc3)c2)c1 (centres unmarked) [Example 152, Bis(3,3′-(phenyl-N-aminoethyl-1-methyl-3-aminopropoxyboryl)benzyl) ether] | 80 | 40 | 
36 | CCCCNCCB(c1ccccc1)c1cccc(COCc2cccc(B(CCNCCCC)c3ccccc3)c2)c1 [Example 155, Bis(3,3′-(phenyl-N-butylaminoethylboryl)benzyl) ether] | 100 | 95 | 
37 | c1ccc(B(OCc2ccccn2)c2ccc(Oc3ccc(B(OCc4ccccn4)c4ccccc4)cc3)cc2)cc1 [Example 160, Bis(4,4′-(phenyl-2-pyridylmethoxyboryl)phenyl) ether] | 0 |  | inhibition (10 µM): 100%
38 | NC(COB(c1ccccc1)c1ccc(COCc2ccc(B(OCC(N)c3ccccc3)c3ccccc3)cc2)cc1)c1ccccc1 (centres unmarked) [Example 164, Bis(4,4′-(phenyl-2-phenyl-2-amino-ethoxyboryl)benzyl) ether] | 100 |  | inhibition (10 µM): 100%
39 | Bis(4,4′-(phenyl-N-methylpiperidine-methoxyboryl)benzyl) ether [Example 139] | 100 | 40 | 
